Where “and” joins values, the source holds several entries; their conditions need not be identical. Identical values can stand only once.
Key:
many bacteria = conditions: Shima et al., 1984; Hiraki, 2000; cited from earlier work
[1] = rats, two generations; Neda et al., 1999; cited from earlier work
Listeria monocytogenes = assay: L. monocytogenes on cooked ground turkey balls blended with ε-polylysine, with or without 5 second acidic adjuvant spray, incubated at 8° C., CFU determination; format: cell-based; conditions: for Log Reduction: vs control
Method: Four groups of 20 g ground uncooked turkey balls were prepared, with 54 balls prepared per group. […] Groups B-D were blended with varying amounts of ε-polylysine (“ε-PL”). Final concentrations of ε-polylysine within the turkey balls were:
After preparation, all meatballs were placed on baking sheets and baked in a conventional oven at 350° F. for 20 minutes. After baking, the meatballs were packaged separately and stored at 4° C.
The mixture was further diluted 1:5000 times with sterile saline to produce a suspension for use. […] 20 microliters of the Listeria monocytogenes suspension was inoculated onto the exterior of each turkey ball. The turkey balls were incubated at room temperature for 30 min post-inoculation to allow bacteria to attach.
Each group of meatballs (54 per group) was divided into two groups of 27 meatballs and labeled as control or treated meatballs as follows: AC, AT, BC, BT, CC, CT, DC and DT, respectively. Control meatballs labeled AC, BC, CC, and DC were sprayed for 5 seconds with sterile water. Treated meatballs labeled AT, BT, CT and DT were sprayed for 5 seconds with the acidic adjuvant prepared in Example 4 above (Safe2O®brandRTE 01, Mionix Corporation, Rocklin, Calif.) diluted 2 parts water to 1 part solution, having a final pH of about 1.5. After the spray treatment, the meatballs were packaged individually, vacuum sealed and incubated at 8° C.
The microbiological assay was performed after 24 hours, 1 week, 2 weeks, 3 weeks, and 4 weeks. After each designated time period had passed, three bags from each group of meat balls were unpacked, transferred to a stomacher bag along with 20 ml of sterile 0.1% peptone water. Each meatball was hand crushed and stomached at high speed for 2 minutes.

Substance: poly(imino(2-amino-1-oxo-1,6-hexanediyl)) [ε-PL]
- minimum inhibitory concentration (MIC) for the growth of many bacteria (many bacteria): below 100 μg mL^−1
- safety as a food additive [1]: no adverse reproductive toxological effects
- average Log Value (Listeria monocytogenes; 1000 ppm ε-PL, after 1 week): 5.38
- average of CFU/g (Listeria monocytogenes; 1000 ppm ε-PL, after 1 week): 2.41E+05 CFU/g
- Log Reduction (Listeria monocytogenes; 1000 ppm ε-PL, after 1 week): 2.99
- average Log Value (Listeria monocytogenes; 1000 ppm ε-PL, after 2 weeks): 4.76
- average of CFU/g (Listeria monocytogenes; 1000 ppm ε-PL, after 2 weeks): 5.72E+04 CFU/g
- Log Reduction (Listeria monocytogenes; 1000 ppm ε-PL, after 2 weeks): 4.09
- average Log Value (Listeria monocytogenes; 1000 ppm ε-PL, after 3 weeks): 5.94
- average of CFU/g (Listeria monocytogenes; 1000 ppm ε-PL, after 3 weeks): 8.75E+05 CFU/g
- average Log Value (Listeria monocytogenes; 1000 ppm ε-PL, after 4 weeks): 6.67
- average of CFU/g (Listeria monocytogenes; 1000 ppm ε-PL, after 4 weeks): 4.64E+06 CFU/g
- Log Reduction (Listeria monocytogenes; 1000 ppm ε-PL, after 4 weeks): 1.91
- average Log Value (Listeria monocytogenes; 1000 ppm ε-PL, after 24 hours): 2.22
- average of CFU/g (Listeria monocytogenes; 1000 ppm ε-PL, after 24 hours): 1.67E+02 CFU/g
- Log Reduction (Listeria monocytogenes; 1000 ppm ε-PL, after 24 hours): 1.48
- average Log Value (Listeria monocytogenes; 2000 ppm ε-PL, after 1 week): 1.40
- average of CFU/g (Listeria monocytogenes; 2000 ppm ε-PL, after 1 week): 2.53E+01 CFU/g
- Log Reduction (Listeria monocytogenes; 2000 ppm ε-PL, after 1 week): 6.97
- average Log Value (Listeria monocytogenes; 2000 ppm ε-PL, after 2 weeks): 4.27
- average of CFU/g (Listeria monocytogenes; 2000 ppm ε-PL, after 2 weeks): 1.88E+04 CFU/g
- Log Reduction (Listeria monocytogenes; 2000 ppm ε-PL, after 2 weeks): 4.57
- average Log Value (Listeria monocytogenes; 2000 ppm ε-PL, after 3 weeks): 2.95
- average of CFU/g (Listeria monocytogenes; 2000 ppm ε-PL, after 3 weeks): 8.96E+02 CFU/g
- Log Reduction (Listeria monocytogenes; 2000 ppm ε-PL, after 3 weeks): 5.33
- average Log Value (Listeria monocytogenes; 2000 ppm ε-PL, after 4 weeks): 3.86
- average of CFU/g (Listeria monocytogenes; 2000 ppm ε-PL, after 4 weeks): 7.18E+03 CFU/g
- Log Reduction (Listeria monocytogenes; 2000 ppm ε-PL, after 4 weeks): 4.72
- average Log Value (Listeria monocytogenes; 2000 ppm ε-PL, after 24 hours): 1.36
- average of CFU/g (Listeria monocytogenes; 2000 ppm ε-PL, after 24 hours): 2.27E+01 CFU/g
- Log Reduction (Listeria monocytogenes; 2000 ppm ε-PL, after 24 hours): 2.35
- average Log Value (Listeria monocytogenes; 3000 ppm ε-PL, after 1 week): <0.94
- average of CFU/g (Listeria monocytogenes; 3000 ppm ε-PL, after 1 week): <8.67E+00 CFU/g
- Log Reduction (Listeria monocytogenes; 3000 ppm ε-PL, after 1 week): >7.43
- average Log Value (Listeria monocytogenes; 3000 ppm ε-PL, after 2 weeks): <2.21
- average of CFU/g (Listeria monocytogenes; 3000 ppm ε-PL, after 2 weeks): <1.61E+02 CFU/g
- Log Reduction (Listeria monocytogenes; 3000 ppm ε-PL, after 2 weeks): <6.64
- CFU/g (Listeria monocytogenes; 3000 ppm ε-PL, after 3 weeks): <2.00E+00 CFU/g
- average Log Value (Listeria monocytogenes; 3000 ppm ε-PL, after 3 weeks): <0.30
- average of CFU/g (Listeria monocytogenes; 3000 ppm ε-PL, after 3 weeks): <2.00E+00 CFU/g
- Log Reduction (Listeria monocytogenes; 3000 ppm ε-PL, after 3 weeks): <7.98
- average Log Value (Listeria monocytogenes; 3000 ppm ε-PL, after 4 weeks): >3.56
- average of CFU/g (Listeria monocytogenes; 3000 ppm ε-PL, after 4 weeks): >3.61E+03 CFU/g
- Log Reduction (Listeria monocytogenes; 3000 ppm ε-PL, after 4 weeks): <5.02
- CFU/g (Listeria monocytogenes; 3000 ppm ε-PL, after 24 hours): 1.40E+01 CFU/g and 1.60E+01 CFU/g and 1.00E+01 CFU/g
- average Log Value (Listeria monocytogenes; 3000 ppm ε-PL, after 24 hours): 1.12
- average of CFU/g (Listeria monocytogenes; 3000 ppm ε-PL, after 24 hours): 1.33E+01 CFU/g
- Log Reduction (Listeria monocytogenes; 3000 ppm ε-PL, after 24 hours): 2.58
- controlling the outgrowth of Listeria, ε-PL alone vs secondary acidic adjuvant spray for 5 sec (Listeria monocytogenes; Tables 2.1-2.5): more effective in controlling the outgrowth of Listeria than the effect of a secondary spray application of the acidic adjuvant

Reference: patent publication US20060083830A1, “Polylysine-containing food additive and acidic adjuvant” (priority 2004, published 2006)
